One data set has as its target T1, TBK1 (Homo sapiens, UniProt Q9UHD2).
T1 sequence (Q9UHD2 1-729): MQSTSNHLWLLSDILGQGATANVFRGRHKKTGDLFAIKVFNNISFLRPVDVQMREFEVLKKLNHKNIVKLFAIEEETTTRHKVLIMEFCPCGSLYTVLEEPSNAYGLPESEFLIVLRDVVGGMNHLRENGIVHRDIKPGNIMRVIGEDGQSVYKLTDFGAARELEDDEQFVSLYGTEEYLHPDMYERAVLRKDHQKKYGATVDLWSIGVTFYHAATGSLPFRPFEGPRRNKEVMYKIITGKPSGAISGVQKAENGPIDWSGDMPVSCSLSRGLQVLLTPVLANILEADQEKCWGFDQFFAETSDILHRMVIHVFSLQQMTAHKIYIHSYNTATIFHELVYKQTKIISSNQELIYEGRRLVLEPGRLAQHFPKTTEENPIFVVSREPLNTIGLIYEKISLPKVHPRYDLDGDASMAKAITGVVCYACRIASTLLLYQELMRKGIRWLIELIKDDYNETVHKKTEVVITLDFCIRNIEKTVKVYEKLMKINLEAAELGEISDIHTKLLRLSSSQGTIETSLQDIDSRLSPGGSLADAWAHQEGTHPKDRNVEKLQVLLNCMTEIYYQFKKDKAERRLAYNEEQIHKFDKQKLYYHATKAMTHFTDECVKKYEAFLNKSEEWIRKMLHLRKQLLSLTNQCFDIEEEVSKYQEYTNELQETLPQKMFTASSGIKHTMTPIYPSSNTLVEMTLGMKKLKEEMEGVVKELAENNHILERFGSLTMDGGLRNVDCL
The conditions noted are these: cited from earlier work.

The test system of the next data set is γδ1 T cells. Kind of data set: CAR related lentivirus transduction of γδ1 T cells with small inhibitors. The format is cell-based, human. The conditions noted are these: 0.06 uM; control finally around 2%. As for the experimental part: (§1) For lentivirus transduction, 1×10^CFU lentivirus diluted in 200 ul PBS were added in a 24-well plate which were pre-coated with RetroNectin reagent (Takara) and centrifugated by 2,000 g for 2 hours at 32° C. After centrifugation, removed the supernatant and washed the plate with PBS three times slightly.
(§2) The plates were incubated at 37° C., 5% CO2.
To test the application of these small molecule on improving the transduction rate of δδ1 T cells. We evaluated the transduction rate of δδ1 T cells with/without different dosage of small molecules.

Data set [1] has as its system γδ2 T cells. The format is cell-based, human. The conditions noted are these: 0.6 uM. As for the experimental part:
as §2

A further data set addresses T2, IKKε (Homo sapiens, UniProt Q14164).
T2 sequence (Q14164 1-716): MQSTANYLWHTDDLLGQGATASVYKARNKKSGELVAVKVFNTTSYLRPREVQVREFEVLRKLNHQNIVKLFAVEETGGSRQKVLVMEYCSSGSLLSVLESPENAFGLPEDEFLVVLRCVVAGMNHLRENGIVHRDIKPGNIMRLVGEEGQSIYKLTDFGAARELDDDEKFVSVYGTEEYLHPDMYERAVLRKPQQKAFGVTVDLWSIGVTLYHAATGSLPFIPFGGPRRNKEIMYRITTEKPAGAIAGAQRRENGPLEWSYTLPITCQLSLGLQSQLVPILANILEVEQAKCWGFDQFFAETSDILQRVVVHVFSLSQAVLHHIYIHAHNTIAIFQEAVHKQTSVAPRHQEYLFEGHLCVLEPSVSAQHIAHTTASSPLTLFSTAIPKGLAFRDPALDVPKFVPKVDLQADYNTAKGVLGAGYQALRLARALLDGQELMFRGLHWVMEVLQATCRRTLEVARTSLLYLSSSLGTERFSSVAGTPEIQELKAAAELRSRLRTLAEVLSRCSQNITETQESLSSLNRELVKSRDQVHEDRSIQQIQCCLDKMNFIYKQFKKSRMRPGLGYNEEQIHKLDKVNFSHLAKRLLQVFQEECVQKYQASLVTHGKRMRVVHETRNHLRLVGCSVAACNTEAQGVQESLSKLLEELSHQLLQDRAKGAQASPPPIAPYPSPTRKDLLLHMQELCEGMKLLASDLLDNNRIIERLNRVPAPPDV
Conditions: cited from earlier work.

Another data set concerns the target T3, PDK1 (Homo sapiens, UniProt O15530).
T3 sequence (O15530 1-556): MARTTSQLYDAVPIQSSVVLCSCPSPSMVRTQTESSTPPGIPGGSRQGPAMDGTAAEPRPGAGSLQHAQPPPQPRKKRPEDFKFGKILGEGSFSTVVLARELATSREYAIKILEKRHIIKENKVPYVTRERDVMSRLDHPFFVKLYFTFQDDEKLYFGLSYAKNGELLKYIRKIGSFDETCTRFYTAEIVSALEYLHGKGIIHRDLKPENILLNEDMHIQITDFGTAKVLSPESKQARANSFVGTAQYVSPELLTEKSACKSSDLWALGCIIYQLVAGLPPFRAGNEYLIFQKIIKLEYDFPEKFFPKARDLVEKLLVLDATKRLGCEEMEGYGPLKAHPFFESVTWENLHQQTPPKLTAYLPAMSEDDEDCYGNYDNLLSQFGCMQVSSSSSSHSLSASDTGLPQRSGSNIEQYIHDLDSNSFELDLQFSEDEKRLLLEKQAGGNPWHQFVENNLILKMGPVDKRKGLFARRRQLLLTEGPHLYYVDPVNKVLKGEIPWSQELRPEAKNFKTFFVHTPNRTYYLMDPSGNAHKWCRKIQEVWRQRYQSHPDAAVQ
Conditions: cited from earlier work.

Data set [2] concerns γδ2 T cells. Kind of data set: CAR (B7H3) related lentivirus transduction of γδ2 T cells with small inhibitors: transduction rate. The conditions noted are these: 0.6 uM, day 10; control below 10%. The format is cell-based, human. As for the experimental part: VSV-G pseudotyped lentiviral vectors were applied in this method. 1×10^7 293T cells were plated into a poly-D-lysine coated 100 mm dish. Next day the cells were transfected with 6 μg of pCDH-EF1-MCS-T2A-copGFP plasmid (Addgene, Plasmid #72263) or pCDH-EF1-CAR-T2A-copGFP plasmid modified from pCDH-EF1-MCS-T2A-copGFP, 4 μg of pspAx2 (Addgene, Plasmid #12260), 2 μg of pCMV-VSV-G (Addgene, Plasmid #8454) using 30 ug PEI transfection regents. After 8 hours of transfection, the cell culture medium was changed. The supernatant were collected 48 hours and 72 hours later. Concentrated the virus with Lenti-X™ Concentrator (Takara) and monitored the virus titers by transduction of 293T cells and stored the concentrated virus in −80° C. until further use.
as §1
For the virus transduction of γδ2 T cells, seeded 1×10^PBMCs which were in vitro cultured after 48 hours in the γδ2 T cell culture medium mentioned above (Gibco serum free medium with rhIL-2 and ZOL). Added or not small inhibitors and mixed well and concentrated the cells by 800 g for 10 mins at 32° C. The plates were incubated at 37° C., 5% CO2. Discarded the small inhibitors regent by changing the cell culture medium 24 hours later.
Calculate the cell number by an automated cell counter and the transduction rate (GFP positive rate) was analyzed by flow cytometry every 2 to 3 days. The transduction rate was monitored in the gate of γδ2 or γδ1 T cells.

The text below walks through data of US20250262241A1, “METHODS TO IMPROVE STABILITY OF VIRUS TRANSDUCTION OF y8 T CELLS AND APPLICATIONS THEREOF” (UNICET BIOTECH CO. LLC., priority 2021, published 2025).

A word on the IC50: it is the concentration that gives 50% inhibition.

On to BX795, for which the results for the IC50 at TBK1, on IKKε and on PDK1 were 6 nM, 41 nM and 6 nM, respectively. Also, in the data set with γδ1 T cells, the “effect on transduction rate of γδ1 T cells” value is given as “could improve the transduction rate”. Further, in the data set on γδ2 T cells [1], the “cell growth of γδ2 T” value is given as “did not influence the cell growth”. Also, in the data set with γδ2 T cells [2], the transduction rate entry is listed as “around 40%”.
